We go through 18 compounds from patent US10913972B2, “5,5-disubstituted luciferins and their use in luciferase-based assays” (Promega Corporation, priority 2016, dated 2021).

Series [1] deals with UltraGlo luciferase. The series is described as follows: RLU of 5,5-disubstituted luciferin analogs normalized to racemic luciferins (Table 1). The series is classed as biochemical. The conditions noted are these: normalized to 1 mM racemic luciferins under identical conditions. The protocol: Further tests were conducted at various substrate concentrations in the presence of sub-saturating D-Luciferin as a means to compare the binding affinity of the substrates. Solutions of 0.005 mg/ml Click Beetle-Green luciferase (CBG) or UltraGlo luciferase were prepared in Bright-Glo™ assay buffer (Promega E263A) with 3 mM ATP. A 2 mM solution of each substrate was then prepared in water containing D-Luciferin (sub-saturating). Each substrate+D-Luciferin was two-fold serially diluted in luciferin free water. A sample of 50 μL of each substrate dilution was combined with 50 μL of the enzyme solution. Samples were incubated at room temperature for one minute, and luminescence was measured on a GLOMAX® Multi+ plate luminometer. […] (FIG. 5A-F). RLU values for certain representative compounds (normalized to racemic luciferins under identical conditions) are provided in Table 1 above. For certain representatative compounds, substrate titration tests were performed using procedures as described herein without comparison to luciferins, therefore providing RLU values not normalized to those of luciferins.
(§1) To determine if luciferin analogs with substitutions at the 5,5 position could be substrates for UltraGlo™ luciferase, tests were performed with analogs containing various di-substitutions of alkyl groups and closed ring structures in luminescence assays. A solution of 0.005 mg/ml UltraGlo™ luciferase (Promega Corp) prepared in 1×TBS+1% Prionex was combined with 0.5 mM ATP in Bright-Glo™ assay buffer (Promega E263A). All substrates were diluted separately in DMSO to 20 mM. After a 30-minute incubation at room temperature, diluted substrate was added to 1 mM final concentration in the reaction and mixed by pipetting. Reactions were further incubated at room temperature for 1 minute, and luminescence measured on a GLOMAX® Multi+ plate luminometer.

Series [2] concerns UltraGlo™ luciferase. As to the kind of experiment: Luminescence assay of 5,5-substituted analogs as substrates for UltraGlo™ luciferase (FIG. 7). Type of series: biochemical. The conditions noted are these: 1 mM substrate, 0.005 mg/ml enzyme, 0.5 mM ATP, 1 minute at room temperature. The method, then:
as §1

The subject of series [3] is ULTRA-GLO™ luciferase. The series is described as follows: Inhibition of luciferase activity by dehydroluciferins. The note with it: titrated from 0.25 mM in 0.25 mM racemic luciferin, 0.1 mM ATP, 1 minute. The series is classed as biochemical. The method, then: Inhibition of luciferase activity by dehydroluciferins: ULTRA-GLO™ luciferase (Promega, 0.1 mg/mL)+0.1% PRIONEX® in detection reagent buffer was prepared. The solution was divided into 2 portions with 0.25 mM Racemic H-Luciferin added to one portion and 0.25 mM racemic NH2 luciferin to the other portion. H-dehydroluciferin (0.25 mM) was added to an aliquot of the racemic H-Luciferin solution, and NH2-dehydroluciferin (0.25 mM) was added to an aliquot of the racemic NH2 luciferin solution. 2× serial dilutions of each of the dehydroluciferin samples were prepared using the racemic solutions as a diluent (500 μL of dehydroluciferin solution added to 500 μL of ULTRA-GLO™+racemic luciferin). 50 μL of each titration series was then added to […] 0.1 mM ATP. The samples were incubated for 1 minute, and the luminescence was measured on GLOMAX®-Multi+ plate luminometer (n=6).

A short description of series [4]: Thermal stability of luciferin stock solutions at 60° C. by RP-HPLC. The conditions noted are these: stock solution pH=6.0, 7.0 mM; for Thermal stability (decomposition in solution): detergents, ULTRA-GLO luciferase 0.1 mg/mL.
Series [5] has as its system firefly or click beetle luciferases. The conditions noted are these: Branchini et al., J. Am. Chem. Soc. 2002; cited from earlier work.
Series [6] concerns recombinant beetle luciferases. The note with it: only the D-form; Viviani et al., Biochemistry 2014; cited from earlier work.

SMILES strings stand for the structures. “Also recorded” adds a separate entry of the source.

Regarding `O=C(O)C1N=C(c2nc3ccc(O)cc3s2)SC12CCCCC2` (stereo not drawn) [CS0325, 2-(6-hydroxybenzo[d]thiazol-2-yl)-1-thia-3-azaspiro[4.5]dec-2-ene-4-carboxylic acid], the “RLU% (RLU normalized to the one generated by 1 mM racemic luciferins under identical conditions)” value in series [1] is on record as 0.22%. Still for that read-out and setting: with `O=C(O)C1N=C(c2nc3ccc(O)cc3s2)SC12CCCC2` (stereo not drawn) [CS0326, 2-(6-hydroxybenzo[d]thiazol-2-yl)-1-thia-3-azaspiro[4.4]non-2-ene-4-carboxylic acid] the figure was 0.43%; with `O=C(O)C1N=C(c2nc3ccc(O)cc3s2)SC12CCC2` (stereo not drawn) [CS0329, 6-(6-hydroxybenzo[d]thiazol-2-yl)-5-thia-7-azaspiro[3.4]oct-6-ene-8-carboxylic acid], 0.29%. Same read-out and setting: the result for `CCC1(CC)SC(c2nc3ccc(O)cc3s2)=NC1C(=O)O` (stereo not drawn) [CS0330, 5,5-diethyl-2-(6-hydroxybenzo[d]thiazol-2-yl)-4,5-dihydrothiazole-4-carboxylic acid] reads 0.60%. For `O=C(O)C1N=C(c2nc3ccc(O)cc3s2)SC12CC2` (stereo not drawn) [CS0333, 5-(6-hydroxybenzo[d]thiazol-2-yl)-4-thia-6-azaspiro[2.4]hept-5-ene-7-carboxylic acid], the “RLU% (RLU normalized to the one generated by 1 mM racemic luciferins under identical conditions)” value in series [1] turned out to be 0.27%. As for `CCC1(CC)SC(c2nc3cc(F)c(O)cc3s2)=NC1C(=O)O` (stereo not drawn) [CS0388, 5,5-diethyl-2-(5-fluoro-6-hydroxybenzo[d]thiazol-2-yl)-4,5-dihydrothiazole-4-carboxylic acid], the Luminescence as substrate result in series [2] is given as “measurable luminescence values”. Moreover, in series [1], the “RLU% (RLU normalized to the one generated by 1 mM racemic luciferins under identical conditions)” value is 0.64%. Taken in the same sequence, the figures for `O=C(O)C1N=C(c2nc3cc(F)c(O)cc3s2)SC12CCCCC2` (stereo not drawn) [CS0392, 2-(5-fluoro-6-hydroxybenzo[d]thiazol-2-yl)-1-thia-3-azaspiro[4.5]dec-2-ene-4-carboxylic acid] were “measurable luminescence values” and 0.13%.

Take `O=C(O)C1N=C(c2nc3ccc(O)cc3s2)SC1(Cc1ccccc1)Cc1ccccc1` (stereo not drawn) [CS0396, 5,5-dibenzyl-2-(6-hydroxybenzo[d]thiazol-2-yl)-4,5-dihydrothiazole-4-carboxylic acid]: the Luminescence as substrate entry in series [2] is on record as “measurable luminescence values”. Further, in series [1], the “RLU% (RLU normalized to the one generated by 1 mM racemic luciferins under identical conditions)” value came out at 1.0%. For the compound `O=C(O)C1N=C(c2nc3ccc(O)cc3s2)SC12CCCCCC2` (stereo not drawn) [CS0397, 2-(6-hydroxybenzo[d]thiazol-2-yl)-1-thia-3-azaspiro[4.6]undec-2-ene-4-carboxylic acid], the “RLU% (RLU normalized to the one generated by 1 mM racemic luciferins under identical conditions)” value in series [1] amounted to 0.13%. Still for that read-out and setting: with `CC1CCC2(CC1)SC(c1nc3ccc(O)cc3s1)=NC2C(=O)O` (stereo not drawn) [CS0404, 2-(6-hydroxybenzo[d]thiazol-2-yl)-8-methyl-1-thia-3-azaspiro[4.5]dec-2-ene-4-carboxylic acid] the figure was 0.31%; with `CN1CCC2(CC1)SC(c1nc3ccc(O)cc3s1)=NC2C(=O)O` (stereo not drawn) [CS0420, 2-(6-hydroxybenzo[d]thiazol-2-yl)-8-methyl-1-thia-3,8-diazaspiro[4.5]dec-2-ene-4-carboxylic acid], 0.20%. On the same count and under the same terms, the result for `CCCC1(CCC)SC(c2nc3ccc(O)cc3s2)=NC1C(=O)O` (stereo not drawn) [CS0427, 2-(6-hydroxybenzo[d]thiazol-2-yl)-5,5-dipropyl-4,5-dihydrothiazole-4-carboxylic acid] reads 0.16%; that for `O=C(O)C1N=C(c2nc3ccc(O)cc3s2)SC12CCOCC2` (stereo not drawn) [CS0439, 2-(6-hydroxybenzo[d]thiazol-2-yl)-8-oxa-1-thia-3-azaspiro[4.5]dec-2-ene-4-carboxylic acid], 0.09%. As to `O=C(O)c1csc(-c2nc3ccc(O)cc3s2)n1` [H-dehydroluciferin], the “Inhibition of luciferase activity” value in series [3] is on record as “potent inhibitors”. With `CC1(C)SC(c2nc3ccc(O)cc3s2)=NC1C(=O)O` (stereo not drawn) [III-a, 2-(6-hydroxybenzo[d]thiazol-2-yl)-5,5-dimethyl-4,5-dihydrothiazole-4-carboxylic acid], the “Thermal stability (decomposition in solution)” value (shortened to “Thermal stability”) in series [4] was “virtually no decomposition; also recorded: more thermally stable than the unsubstituted luciferin”. Besides, the “Light production via luciferase mediated processes” value in series [5] is listed as “incapable of producing light”. With `CC1(C)SC(c2nc3ccc(N)cc3s2)=NC1C(=O)O` (stereo not drawn) [III-b, 2-(6-aminobenzo[d]thiazol-2-yl)-5,5-dimethyl-4,5-dihydrothiazole-4-carboxylic acid], in series [6], the Light production result is reported as “produce light”. The “Thermal stability” value in series [4] is on record as “virtually no decomposition; also recorded: more thermally stable than the unsubstituted luciferin”. Take `Nc1ccc2nc(-c3nc(C(=O)O)cs3)sc2c1` [NH2-dehydroluciferin]: in series [3], the “Inhibition of luciferase activity” value is “potent inhibitors”.

With `O=C(O)[C@H]1CSC(c2nc3ccc(O)cc3s2)=N1` [unsubstituted luciferin], the “Thermal stability” value in series [4] is “significant decomposition”. For the same compound, the Major degradation product result in series [4] (with or without ULTRA-GLO luciferase) is “dehydroluciferin”.
